For 16 compounds, IC50 results are on record in BindingDB's records for doi:10.3109/14756366.2012.709242 (Anadolu University, 2013).

Molecules are shown by their SMILES.

One test concerns the target Acetylcholinesterase (Electrophorus electricus, UniProt O42275). Description: Enzymatic Assay. To be noted: pH 8; 25 °C. How it is done: (§1) AChE or BChE solution (50 μL) and compound solution (50 μL), which is prepared in 2% DMSO at a concentration range of 10^−1-10^−6 mM, were added to 3.0 mL phosphate buffer (pH8 ± 0.1) and incubated at 25°C for 5 min. The reaction was started by adding (DTNB) (50 μL) and ATC (10 μL) to the enzyme-inhibitor mixture. […] As a control, an identical solution of the enzyme without the inhibitor was processed following the same protocol. The blank reading contained 3.0 mL buffer, 50 μL 2% DMSO, 50 μL DTNB and 10 μL substrate. All processes were assayed in triplicate.

Test [1] has as its target Carboxylic ester hydrolase (Equus caballus, UniProt Q9N1N9). Briefly: Enzymatic Assay. How it is done:
as §1

Sequence of Carboxylic ester hydrolase (Q9N1N9 whole entry): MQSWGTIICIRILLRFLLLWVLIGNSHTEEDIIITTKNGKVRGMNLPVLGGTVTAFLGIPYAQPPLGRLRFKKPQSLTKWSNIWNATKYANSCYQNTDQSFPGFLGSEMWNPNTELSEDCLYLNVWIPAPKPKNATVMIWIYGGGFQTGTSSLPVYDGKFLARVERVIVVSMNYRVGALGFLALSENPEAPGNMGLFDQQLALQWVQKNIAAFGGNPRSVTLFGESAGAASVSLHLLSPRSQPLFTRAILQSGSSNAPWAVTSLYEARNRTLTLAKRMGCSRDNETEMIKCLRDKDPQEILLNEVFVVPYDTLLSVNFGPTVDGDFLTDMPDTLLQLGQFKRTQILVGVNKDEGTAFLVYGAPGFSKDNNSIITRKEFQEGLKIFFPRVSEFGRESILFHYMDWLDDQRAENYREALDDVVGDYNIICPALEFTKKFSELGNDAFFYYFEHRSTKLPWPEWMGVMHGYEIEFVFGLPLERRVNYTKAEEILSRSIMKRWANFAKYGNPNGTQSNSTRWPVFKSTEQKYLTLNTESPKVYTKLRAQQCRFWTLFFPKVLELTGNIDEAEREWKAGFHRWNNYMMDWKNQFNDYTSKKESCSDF
Sequence of Acetylcholinesterase (O42275 whole entry): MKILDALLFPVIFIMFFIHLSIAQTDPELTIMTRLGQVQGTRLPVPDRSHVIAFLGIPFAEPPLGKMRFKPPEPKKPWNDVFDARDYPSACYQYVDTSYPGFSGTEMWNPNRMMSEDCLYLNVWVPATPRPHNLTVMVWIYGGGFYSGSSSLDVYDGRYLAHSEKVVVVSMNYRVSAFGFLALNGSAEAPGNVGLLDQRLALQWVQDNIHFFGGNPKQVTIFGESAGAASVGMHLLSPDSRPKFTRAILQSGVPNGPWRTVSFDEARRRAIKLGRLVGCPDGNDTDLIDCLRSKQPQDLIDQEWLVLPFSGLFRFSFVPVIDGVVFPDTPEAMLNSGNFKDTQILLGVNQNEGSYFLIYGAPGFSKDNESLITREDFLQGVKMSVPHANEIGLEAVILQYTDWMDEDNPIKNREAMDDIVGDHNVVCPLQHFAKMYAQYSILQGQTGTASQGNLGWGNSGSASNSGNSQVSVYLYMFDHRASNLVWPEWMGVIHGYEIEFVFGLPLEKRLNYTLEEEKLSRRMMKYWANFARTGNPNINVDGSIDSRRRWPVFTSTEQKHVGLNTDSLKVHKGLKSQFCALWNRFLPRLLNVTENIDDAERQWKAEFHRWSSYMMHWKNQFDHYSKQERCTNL

Broadly, the IC50 is the concentration needed to halve the response being measured. A low value points to higher potency. For the compound `Cc1nc(-c2ccc(NC(=O)CN3CCN(C)CC3)cc2)cs1` [2-(4-Methylpiperazine-1-yl)-N-[4-(2-methylthiazol-4-yl)phenyl]acetamide (5a)], the IC50 against Acetylcholinesterase is 7.12 µM; in test [1], more than 100 µM.
On the same counts, the results for `Cc1nc(-c2ccc(NC(=O)CN3CCN(c4ccc(Cl)cc4)CC3)cc2)cs1` [2-[4-(4-Chlorophenyl)piperazine-1-yl]-N-[4-(2-methylthiazol-4-yl)phenyl]acetamide (5g)] are more than 100 µM and more than 100 µM.
For `Cc1nc(-c2ccc(NC(=O)CN3CCN(C4CCCCC4)CC3)cc2)cs1` [2-(4-Cyclohexylpiperazine-1-yl)-N-[4-(2-methylthiazol-4-yl)pheny])acetamide (5c)], in that order: 6.34 µM and more than 100 µM.
Consider `Cc1nc(-c2ccc(NC(=O)CN3CCN(c4ccccc4C)CC3)cc2)cs1` [2-[4-(2-Methylphenyl)piperazine-1-yl]-N-[4-(2-methylthiazol-4-yl)pheny]acetamide (5l)], for which the concentration for half-maximal inhibition (IC50) (on Acetylcholinesterase; in test [1]) was more than 100 µM in each case.
`Cc1ccc(N2CCN(CC(=O)Nc3ccc(-c4csc(C)n4)cc3)CC2)cc1` [2-[4-(4-Methylphenyl)piperazine-1-yl]-N-[4-(2-methylthiazol-4-yl)phenyl]acetamide (5e)]: the IC50 (against Acetylcholinesterase; in test [1]) was more than 100 µM in each case.
On to `Cc1nc(-c2ccc(NC(=O)CN3CCN(c4ccc(F)cc4)CC3)cc2)cs1` [2-[4-(4-Florophenyl)piperazine-1-yl]-4-[4-(2-methylthiazol-4-yl)phenyl]acetamide (5h)], for which the half-maximal inhibitory concentration (IC50) (at Acetylcholinesterase; in test [1]) was more than 100 µM each time.
For `COc1cccc(N2CCN(CC(=O)Nc3ccc(-c4csc(C)n4)cc3)CC2)c1` [2-[4-(3-Methoxyphenyl)piperazine-1-yl]-N-[4-(2-methylthiazol-4-yl)phenyl]acetamide (5k)], the IC50 (against Acetylcholinesterase; in test [1]) was more than 100 µM each time.
In the case of `CCN1CCN(CC(=O)Nc2ccc(-c3csc(C)n3)cc2)CC1` [2-(4-Ethylpiperazine-1-yl)-N-[4-(2-methylthiazol-4-yl)pheny])acetamide (5b)], the IC50 against Acetylcholinesterase is 11.7 µM; in test [1], more than 100 µM.
With `Cc1cccc(N2CCN(CC(=O)Nc3ccc(-c4csc(C)n4)cc3)CC2)c1` [2-[4-(3-Methylphenyl)piperazine-1-yl]-N-[4-(2-methylthiazol-4-yl)phenyl]acetamide (5j)], the IC50 on Acetylcholinesterase is 88.4 µM; in test [1] it was more than 100 µM.
Turning to `Cc1nc(-c2ccc(NC(=O)CN3CCN(Cc4ccccc4)CC3)cc2)cs1` [2-[4-(2-Benzyl)piperazine-1-yl]-N-[4-(2-methylthiazol-4-yl)phenyl]acetamide (5o)], the half-inhibitory concentration (IC50) on Acetylcholinesterase is 0.011 µM; in test [1] it was more than 100 µM.
On the same counts, the results for `COc1ccccc1N1CCN(CC(=O)Nc2ccc(-c3csc(C)n3)cc2)CC1` [2-[4-(2-Methoxyphenyl)piperazine-1-yl]-N-[4-(2-methylthiazol-4-yl)phenyl]acetamide (5m)] are 8.42 µM and more than 100 µM.
For `Cc1nc(-c2ccc(NC(=O)CN3CCN(c4ccc([N+](=O)[O-])cc4)CC3)cc2)cs1` [2-[4-(4-Nitrophenyl)piperazine-1-yl]-N-[4-(2-methylthiazol-4-yl)pheny]acetamide (5i)], in that order: more than 100 µM and more than 100 µM.
In the case of `Cc1nc(-c2ccc(NC(=O)CN3CCN(c4ccccn4)CC3)cc2)cs1` [2-[4-(2-Pyridyl)piperazine-1-yl]-N-[4-(2-methylthiazol-4-yl)phenyl]acetamide (5n)], the results for the half-inhibitory concentration (IC50) (against Acetylcholinesterase; in test [1]) were 0.051 µM and more than 100 µM, respectively.
As for `COc1ccc(N2CCN(CC(=O)Nc3ccc(-c4csc(C)n4)cc3)CC2)cc1` [2-[4-(4-Methoxyphenyl)piperazine-1-yl]-N-[4-(2-methylthiazol-4-yl)phenyl]acetamide (5f)], the IC50 (at Acetylcholinesterase; in test [1]) was more than 100 µM each time.
Regarding `Cc1nc(-c2ccc(NC(=O)CN3CCN(c4ccccc4)CC3)cc2)cs1` [2-(4-Phenylpiperazine-1-yl)-N-[4-(2-methylthiazol-4-yl)phenyl]acetamide (5d)], the IC50 (at Acetylcholinesterase; in test [1]) was more than 100 µM each time.
Take `Cc1nc(-c2ccc(NC(=O)CN3CCN(C(=O)c4ccco4)CC3)cc2)cs1` [2-[4-(2-Furoyl)piperazine-1-yl]-N-[4-(2-methylthiazol-4-yl)phenyl]acetamide (5p)]: the results for the IC50 (against Acetylcholinesterase; in test [1]) were 0.27 µM and more than 100 µM, respectively.
